From patent US12043632B2, “6-heteroaryloxy benzimidazoles and azabenzimidazoles as JAK2 inhibitors” (Ajax Therapeutics, Inc., priority 2020, dated 2024)

biological target: T1, JAK2 (JH1domain-catalytic, Y1007F,Y1008F) kinase (Homo sapiens, UniProt O60674, Y1007F/Y1008F); test: JAK2 JH1 Domain Binding Assay; conditions: qPCR readout
T1 construct: JAK2 (JH1domain-catalytic, Y1007F,Y1008F) kinase was expressed as N-terminal fusion; made in house; host or cells: transiently transfected HEK293 cells
T1 sequence (O60674 849-1124 Y1007F/Y1008F limits assumed): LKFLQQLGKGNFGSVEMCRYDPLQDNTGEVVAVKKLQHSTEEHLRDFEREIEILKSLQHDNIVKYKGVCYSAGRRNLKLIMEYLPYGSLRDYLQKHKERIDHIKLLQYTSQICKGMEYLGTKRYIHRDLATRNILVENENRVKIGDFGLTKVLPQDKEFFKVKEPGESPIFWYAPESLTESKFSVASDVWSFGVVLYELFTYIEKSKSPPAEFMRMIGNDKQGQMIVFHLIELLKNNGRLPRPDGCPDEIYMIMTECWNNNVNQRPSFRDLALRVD

Q: How did the Kd turn out when `Cn1c(Nc2ccc(CN3CCN(CC(F)F)CC3)c(C(F)(F)F)c2)nc2ncc(Oc3cnn4ccncc34)c(Cl)c21` [Example I-208, 7-chloro-N-(4-((4-(2,2-difluoroethyl)piperazin-1-yl)methyl)-3-(trifluoromethyl)phenyl)-1-methyl-6-(pyrazolo[1,5-a]pyrazin-3-yloxy)-1H-imidazo[4,5-b]pyridin-2-amine] was run?
A: 50 to 1000 nM

Q: How did the Kd turn out when `CN1CC[C@@H](Oc2cc(Nc3nc4ncc(Oc5cnn6ccncc56)c(Cl)c4n3C)cc(C(F)(F)F)c2)C1` [Example I-209, (R)-7-chloro-1-methyl-N-(3-((1-methylpyrrolidin-3-yl)oxy)-5-(trifluoromethyl)phenyl)-6-(pyrazolo[1,5-a]pyrazin-3-yloxy)-1H-imidazo[4,5-b]pyridin-2-amine] was run?
A: 10 to 50 nM

Q: How did the Kd turn out when `CN1CC[C@H](Oc2cc(Nc3nc4ncc(Oc5cnn6ccncc56)c(Cl)c4n3C)cc(C(F)(F)F)c2)C1` [Example I-210, (S)-7-chloro-1-methyl-N-(3-((1-methylpyrrolidin-3-yl)oxy)-5-(trifluoromethyl)phenyl)-6-(pyrazolo[1,5-a]pyrazin-3-yloxy)-1H-imidazo[4,5-b]pyridin-2-amine] was run?
A: < 10 nM

Q: For `COc1c(Oc2cnn3ccnc(OC)c23)cnc2nc(Nc3cc(C4CC4)cn(C)c3=O)n(C)c12` [Example I-211, 5-cyclopropyl-3-((7-methoxy-6-((4-methoxypyrazolo[1,5-a]pyrazin-3-yl)oxy)-1-methyl-1H-imidazo[4,5-b]pyridin-2-yl)amino)-1-methylpyridin-2(1H)-one], which Kd is on record?
A: < 10 nM

Q: `Cn1cc(C(F)(F)F)cc(Nc2nc3ncc(Oc4cnn5ccccc45)c(C#N)c3n2C)c1=O` [Example I-212, 1-methyl-2-((1-methyl-2-oxo-5-(trifluoromethyl)-1,2-dihydropyridin-3-yl)amino)-6-(pyrazolo[1,5-a]pyridin-3-yloxy)-1H-imidazo[4,5-b]pyridine-7-carbonitrile] was tested. Which Kd did it give?
A: < 10 nM

Q: How did the Kd turn out when `Cn1c(Nc2cc(C(F)(F)F)cn([C@H]3C[C@@H](O)C3)c2=O)nc2ncc(Oc3cnn4ccc(F)cc34)c(Cl)c21` [Example I-213, cis-3-((7-chloro-6-((5-fluoropyrazolo[1,5-a]pyridin-3-yl)oxy)-1-methyl-1H-imidazo[4,5-b]pyridin-2-yl)amino)-1-(3-hydroxycyclobutyl)-5-(trifluoromethyl)pyridin-2(1H)-one] was run?
A: 10 to 50 nM

Q: With `CNc1nccn2ncc(Oc3cnc4nc(Nc5cc(C(F)(F)F)cn([C@H]6C[C@@H](O)C6)c5=O)n(C)c4c3Cl)c12` [Example I-214, 3-((7-chloro-1-methyl-6-((4-(methylamino)pyrazolo[1,5-a]pyrazin-3-yl)oxy)-1H-imidazo[4,5-b]pyridin-2-yl)amino)-1-((1s,3s)-3-hydroxycyclobutyl)-5-(trifluoromethyl)pyridin-2(1H)-one] as the molecule, how does the Kd read?
A: < 10 nM

Q: Which Kd does the source give for `CN(C)Cc1cc(F)c(Nc2nc3ncc(Oc4cnn5ccncc45)c(Cl)c3n2C)cc1C(F)(F)F` [Example I-215, 7-chloro-N-(4-((dimethylamino)methyl)-2-fluoro-5-(trifluoromethyl)phenyl)-1-methyl-6-(pyrazolo[1,5-a]pyrazin-3-yloxy)-1H-imidazo[4,5-b]pyridin-2-amine] here?
A: < 10 nM

Q: For `CNc1nccn2ncc(Oc3cnc4nc(Nc5ccc(CN6CC(C#N)C6)c(C(F)(F)F)c5)n(C)c4c3Cl)c12` [Example I-216, 1-(4-((7-chloro-1-methyl-6-((4-(methylamino)pyrazolo[1,5-a]pyrazin-3-yl)oxy)-1H-imidazo[4,5-b]pyridin-2-yl)amino)-2-(trifluoromethyl)benzyl)azetidine-3-carbonitrile], which Kd is on record?
A: 10 to 50 nM

Q: `[2H]C([2H])([2H])n1cc(C(F)(F)F)cc(Nc2nc3ncc(Oc4cnn5ccnc(NC)c45)c(Cl)c3n2C)c1=O` [Example I-217, 3-((7-chloro-1-methyl-6-((4-(methylamino)pyrazolo[1,5-a]pyrazin-3-yl)oxy)-1H-imidazo[4,5-b]pyridin-2-yl)amino)-1-(methyl-d3)-5-(trifluoromethyl)pyridin-2(1H)-one] was tested. Which Kd did it give?
A: < 10 nM

Q: Which Kd does the source give for `CN1CC(Oc2cc(Nc3nc4ncc(Oc5cnn6ccncc56)c(Cl)c4n3C)cc(C(F)(F)F)c2)C1` [Example I-218, 7-chloro-1-methyl-N-(3-((1-methylazetidin-3-yl)oxy)-5-(trifluoromethyl)phenyl)-6-(pyrazolo[1,5-a]pyrazin-3-yloxy)-1H-imidazo[4,5-b]pyridin-2-amine] here?
A: < 10 nM

Q: For `CNc1nccn2ncc(Oc3cnc4nc(Nc5cc(-n6cnc(C)c6)cc(C(F)(F)F)c5)n(C)c4c3Cl)c12` [Example I-219, 7-chloro-1-methyl-N-(3-(4-methyl-1H-imidazol-1-yl)-5-(trifluoromethyl)phenyl)-6-((4-(methylamino)pyrazolo[1,5-a]pyrazin-3-yl)oxy)-1H-imidazo[4,5-b]pyridin-2-amine], which Kd is on record?
A: 10 to 50 nM

Q: For `CNc1nccn2ncc(Oc3cnc4nc(Nc5cc(N6CCN(C)CC6)cc(C(F)(F)F)c5)n(C)c4c3Cl)c12` [Example I-220, 7-chloro-1-methyl-6-((4-(methylamino)pyrazolo[1,5-a]pyrazin-3-yl)oxy)-N-(3-(4-methylpiperazin-1-yl)-5-(trifluoromethyl)phenyl)-1H-imidazo[4,5-b]pyridin-2-amine], which Kd is on record?
A: 10 to 50 nM

Q: `CNc1nccn2ncc(Oc3cnc4nc(Nc5cc(C(F)(F)F)cn(C)c5=O)n(C)c4c3)c12` [Example I-221, 1-methyl-3-((1-methyl-6-((4-(methylamino)pyrazolo[1,5-a]pyrazin-3-yl)oxy)-1H-imidazo[4,5-b]pyridin-2-yl)amino)-5-(trifluoromethyl)pyridin-2(1H)-one] was tested. Which Kd did it give?
A: 10 to 50 nM

Q: With `CNc1nccn2ncc(Oc3cnc4nc(Oc5cc(C6CC6)cn(C(C)C)c5=O)n(C)c4c3Cl)c12` [Example I-222] as the molecule, how does the Kd read?
A: 10 to 50 nM

Q: Which Kd does the source give for `CNc1nccn2ncc(Oc3cnc4nc(Nc5cc(C(F)(F)F)c[nH]c5=O)n(C)c4c3Cl)c12` [Example I-223, 3-((7-chloro-1-methyl-6-((4-(methylamino)pyrazolo[1,5-a]pyrazin-3-yl)oxy)-1H-imidazo[4,5-b]pyridin-2-yl)amino)-5-(trifluoromethyl)pyridin-2(1H)-one] here?
A: < 10 nM

Q: For `COc1nccn2ncc(Oc3cnc4nc(Nc5cc(C(F)(F)F)cn(C)c5=O)n(C)c4c3Cl)c12` [Example I-224, 3-((7-chloro-6-((4-methoxypyrazolo[1,5-a]pyrazin-3-yl)oxy)-1-methyl-1H-imidazo[4,5-b]pyridin-2-yl)amino)-1-methyl-5-(trifluoromethyl)pyridin-2(1H)-one], which Kd is on record?
A: < 10 nM

Q: `Cn1cc(C(F)(F)F)cc(Nc2nc3ncc(Oc4cnn5ccnc(N[C@H]6CCOC6)c45)c(Cl)c3n2C)c1=O` [Example I-225, (S)-3-((7-chloro-1-methyl-6-((4-((tetrahydrofuran-3-yl)amino)pyrazolo[1,5-a]pyrazin-3-yl)oxy)-1H-imidazo[4,5-b]pyridin-2-yl)amino)-1-methyl-5-(trifluoromethyl)pyridin-2(1H)-one] was tested. Which Kd did it give?
A: < 10 nM

Q: For `CNc1nccn2ncc(Oc3cnc4nc(Nc5cc(C(=O)N(C)C)c(F)c(C(F)(F)F)c5)n(C)c4c3Cl)c12` [Example I-226, 5-((7-chloro-1-methyl-6-((4-(methylamino)pyrazolo[1,5-a]pyrazin-3-yl)oxy)-1H-imidazo[4,5-b]pyridin-2-yl)amino)-2-fluoro-N,N-dimethyl-3-(trifluoromethyl)benzamide], which Kd is on record?
A: 10 to 50 nM
